Data on 15 compounds can be found in patent publication US9737504B2, “Dihydroorotic and acid dehydrogenase inhibitor” (NAI INC., priority 2012, dated 2017).

What is called GI50 is the concentration giving 50% growth inhibition. The term IC50 denotes the concentration at which inhibition is half-maximal. The term inhibition denotes the relative decrease from the control value, in per cent. Usually melting point stands for the temperature, or range, at which the solid turns liquid.

The test system of one series is MKN74. In words: JFCR39 cancer cell growth inhibition test, MKN74. It is filed as cell-based. As to conditions: Homo sapiens, MKN-74; MKN74, St (Stomac).
The test system of another series is bovine complex II-III. Kind of series: Inhibition of bovine complex II-III. It counts as biochemical.
For series [1], the target named is T1, human DHOD (Homo sapiens, UniProt Q02127). Kind of series: Measurement of DHOD inhibitory activity (DCIP reduction, end point assay). It is filed as biochemical. As to conditions: read-out: DHOD inhibition rate (%) 100 nM; 100 nM compound.
T1 sequence (Q02127 whole entry): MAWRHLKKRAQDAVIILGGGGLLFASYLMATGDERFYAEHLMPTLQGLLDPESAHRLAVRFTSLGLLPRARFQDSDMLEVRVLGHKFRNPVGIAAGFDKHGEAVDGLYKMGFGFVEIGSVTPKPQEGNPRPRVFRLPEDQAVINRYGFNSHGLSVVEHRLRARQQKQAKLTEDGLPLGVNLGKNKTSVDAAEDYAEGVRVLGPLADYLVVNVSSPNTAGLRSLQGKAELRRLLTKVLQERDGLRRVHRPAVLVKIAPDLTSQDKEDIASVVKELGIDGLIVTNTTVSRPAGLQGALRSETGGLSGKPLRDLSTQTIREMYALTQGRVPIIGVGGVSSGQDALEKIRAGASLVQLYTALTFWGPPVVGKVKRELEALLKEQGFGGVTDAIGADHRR
Series [2] relates to DLD-1 cells (human colorectal cancer cells). Kind of series: Inhibitory effect on DLD-1 cells, control vs hypoxic and subnutritional conditions. It counts as cell-based. To be noted: for IC50: Homo sapiens. On the procedure: (§1) For these reasons, cells of colorectal and pancreatic cancers, each being regarded as intractable, were used to test the inhibitory effect of compounds under hypoxic and subnutritional conditions. Moreover, the same test was also performed on normal skin cells.
The cells used were two types of cancer cells, i.e., DLD-1 cells (human colorectal cancer cells) and Panc-1 cells (human pancreatic cells), as well as HDF cells (human dermal fibroblast cells). Culture conditions were set as follows: 21% oxygen with glucose and […] (10% FBS) for the control group, and 1% oxygen without glucose and […] (10% FBS) for the hypoxic and subnutritional group. The results obtained are shown in Tables 3, 4 and 5, as well as FIGS. 1, 2 and 3.

The next series has as its system KM-12. Kind of series: JFCR39 cancer cell growth inhibition test, KM-12. As to conditions: Homo sapiens, KM12; KM-12, Co (Colon). It counts as cell-based.
The subject of series [3] is HDF cells (human dermal fibroblast cells). In words: Inhibitory effect on HDF cells, control vs hypoxic and subnutritional conditions. It is filed as cell-based. As to conditions: for Selectivity = 21% glc(+)gln(+) IC50/1% glc(−)gln(−) IC50: HDF; for IC50: Homo sapiens, HDF normal skin cells. On the procedure: as §1
The cells used were two types of cancer cells, i.e., DLD-1 cells (human colorectal cancer cells) and Panc-1 cells (human pancreatic cells), as well as HDF cells (human dermal fibroblast cells).

In series [4] the target is T1, human DHOD. In words: Measurement of DHOD inhibitory activity (DCIP reduction, end point assay). It is filed as biochemical. To be noted: for inhibition at 0.2 µM: read-out: DHOD inhibition rate (%) 200 nM, 200 nM compound; for IC50: read-out: IC50 (nM) human DHOD (HsDHOD). How it is done: The compounds of the present invention were used and measured for their DHOD inhibitory activity at concentrations of 200 nM and 1000 nM.
Reduction of DCIP was measured at 600 nm over 20 minutes.

For another series, the system named is OVCAR-8. Kind of series: JFCR39 cancer cell growth inhibition test, OVCAR-8. It counts as cell-based. To be noted: Homo sapiens; OVCAR-8, Ov (Ovarian).
A further series deals with L0X-IMVI. In words: JFCR39 cancer cell growth inhibition test, L0X-IMVI. It counts as cell-based. As to conditions: Homo sapiens, Me (Melanoma).
Another series concerns HCC2998. In words: JFCR39 cancer cell growth inhibition test, HCC2998. To be noted: Homo sapiens, HCC 2998; HCC2998, Co (Colon). It is filed as cell-based.
A further series concerns MKN28. In words: JFCR39 cancer cell growth inhibition test, MKN28. It counts as cell-based. To be noted: Homo sapiens, MKN-28; MKN28, St (Stomac).
The test system of series [5] is human MX-1 breast, LX-1 lung, BL/STX-1 stomach and CX-1 colon carcinomas. To be noted: nude mice, 20 to 40 mg/kg/day; MX-1, LX-1, BL/STX-1, CX-1; cited from earlier work.
The subject of a further series is DLD-2 colon cancer. To be noted: in vivo; cited from earlier work.
The subject of a further series is UMP levels. As to conditions: after treatment with 25 μM NSC368390; cited from earlier work.
Where [6] appears, read: read-out: IC50 DLD-1 [μM] 1% O2 glc(−)gln(−), DLD-1, 1% O2 glc(−)gln(−), 24 hours.
The mark [7] stands for this setting: read-out: IC50 DLD-1 [μM] 1% O2 glc(−)gln(−), DLD-1, 1% O2 glc(−)gln(−), 48 hours.
The mark [8] stands for this setting: read-out: IC50 [μM] 1% O2 glc(−)gln(−), 1% O2 glc(−)gln(−).

Read-outs that look alike come from different tables or passages of the source.

In the case of `CC(C)=CCC/C(C)=C/CC/C(C)=C/Cc1c(O)c(Cl)c(C)c(C=O)c1O` [280-12, (E,E)-3-Chloro-4,6-dihydroxy-5-(3,7,11-trimethyl-2,6,10-dodecatienyl)-2-methylbenzaldehyde], the GI50 with MKN74 amounted to 1.3 µM; in the series on KM-12, 2 µM. For the same compound, the IC50 in the series with bovine complex II-III was found to be 0.26 µM; in series [2] (setting [6]) it was 0.069 µM; in [2] (setting [7]) it was 0.025 µM; in [2] (DLD-1, 21% O2 glc(+)gln(+), 24 hours, read-out: IC50 DLD-1 [μM] 21% O2 glc(+)gln(+)) it was 76 µM; in [2] (DLD-1, 21% O2 glc(+)gln(+), 48 hours, read-out: IC50 DLD-1 [μM] 21% O2 glc(+)gln(+)), 37 µM; in series [3] (setting [8]), 0.17 µM. Further, the IC50 in series [3] (21% O2 glc(+)gln(+), read-out: IC50 [μM] 21% O2 glc(+)gln(+)) was 60 µM; on human DHOD [4], 6 nM. In addition, the inhibition at 0.1 µM at human DHOD [1] came to 94%. In addition, the “Selectivity = 21% glc(+)gln(+) IC50/1% glc(−)gln(−) IC50” value turned out to be 1100 in series [2] (DLD-1, 24 hours); 1480 in [2] (DLD-1, 48 hours); 353 in series [3]. Moreover, on human DHOD [4], the inhibition at 0.2 µM is 104%.

Compound `Cc1c(Cl)c(O)c(/C=C/CCCCCCOC(=O)C(C)C)c(O)c1C=O` [200-12-OCOiPr, (E)-8-(3-Chloro-5-formyl-2,6-dihydroxy-4-methylphenyl)-7-octenyl isobutylate] came in with a melting point of 73 °C. Further, on human DHOD [1], the inhibition at 0.1 µM was 85%. Also, on human DHOD [4], the inhibition at 0.2 µM amounted to 51% and the IC50 amounted to 326 ± 41 nM.

Regarding `COC(=O)/C(C)=C/CC/C(C)=C/Cc1c(O)c(Cl)c(C)c(C=O)c1O` [275-10-COOMe, Methyl (2E,6E)-8-(3-chloro-5-formyl-2,6-dihydroxy-4-methyl)phenyl-2,6-dimethyl-2,6-octa dienoate], the IC50 with bovine complex II-III is 1.9 µM; in series [2] (setting [6]) it was 1.7 µM; in series [2] (setting [7]) it was 0.64 µM; at human DHOD [4], 4.2 nM. Besides, the values for the GI50 in the series on OVCAR-8 and in the series with KM-12 were 4.4 µM and 6.4 µM, respectively. The inhibition at 0.1 µM on human DHOD [1] amounted to 100%. Further, the “Selectivity = 21% glc(+)gln(+) IC50/1% glc(−)gln(−) IC50” value in series [2] (DLD-1, 24 hours) is listed as above 59; in series [2] (DLD-1, 48 hours), above 156; in series [3], above 32. Besides, on human DHOD [4], the inhibition at 0.2 µM was 100%.

Turning to `C/C(=C\CC/C(C)=C/Cc1c(O)c(Cl)c(C)c(C=O)c1O)CO` [236-9-OH, 3-Chloro-4,6-dihydroxy-5-(2E,6E)-8-hydroxy-3,7-dimethyl-2,6-octadienyl-2-methylbenzaldehyde], the melting point fell in the range of 99 to 99.7 °C. For the same compound, the inhibition at 0.1 µM on human DHOD [1] worked out at 103%. Moreover, on human DHOD [4], the inhibition at 0.2 µM turned out to be 82% and the IC50 was found to be 44 ± 5 nM.

As for `C/C(=C\Cc1c(O)c(Cl)c(C)c(C=O)c1O)CC/C=C(\C)C(C)O` (stereo not drawn) [277-9-OH, 3-Chloro-4,6-dihydroxy-2-methyl-5-(2E,6E)-(8-hydroxy-3,7-dimethyl-2,6-nonadienyl)benzaldehyde], the inhibition at 0.1 µM on human DHOD [1] is 107%. Also, the GI50 in the series with KM-12 is 32 µM. At human DHOD [4], the inhibition at 0.2 µM was determined as 75% and the IC50 is 64 nM.

With `C/C(=C\Cc1c(O)c(Cl)c(C)c(C=O)c1O)CC/C=C(\C)CCC1OC1(C)C` (stereo not drawn) [281-12, 3-Chloro-5-(2E,6E)-3,7-dimethyl-9-(3,3-dimethyloxiran-2-yl)-2,6-nonadienyl-4,6-dihydroxy-2-methylbenzaldehyde], the melting point was 36 to 37 °C. Besides, the inhibition at 0.1 µM at human DHOD [1] worked out at 100%. In addition, at human DHOD [4], the inhibition at 0.2 µM was 79% and the IC50 came out at 50 ± 5 nM.

For `C/C(=C\Cc1c(O)c(Cl)c(C)c(C=O)c1O)CCCCOC(=O)C(C)(C)C` [264-11-OPiv, (5E)-7-(3-Chloro-5-formyl-2,6-dihydroxy-4-methylphenyl)-5-methyl-5-heptenyl pivalate], at human DHOD [1], the inhibition at 0.1 µM was determined as 94%. Moreover, on human DHOD [4], the inhibition at 0.2 µM is 58% and the IC50 came out at 123 ± 18 nM.

For the compound `CC(C)=CCC/C(C)=C/Cc1c(O)c(Cl)c(C)c(C=O)c1O` [CC-B, (E)-3-Chloro-4,6-dihydroxy-5-(3,7-dimethyl-2,6-octadienyl)-2-methylbenzaldehyde], the inhibition at 0.1 µM at human DHOD [1] came out at 100%. On human DHOD [4], the inhibition at 0.2 µM was 69% and the IC50 amounted to 1050 ± 214 nM.

In turn, `CC(=O)/C(C)=C/CC/C(C)=C/Cc1c(O)c(Cl)c(C)c(C=O)c1O` [276-9] showed a melting point of 119 to 120 °C. In addition, the inhibition at 0.1 µM on human DHOD [1] came out at 96%. Moreover, on human DHOD [4], the inhibition at 0.2 µM amounted to 87% and the IC50 is 24 ± 3 nM.

Regarding `CC(=O)OC(C)/C(C)=C/CC/C(C)=C/Cc1c(O)c(Cl)c(C)c(C=O)c1O` (stereo not drawn) [277-11-OAc, (3E,7E)-9-(3-Chloro-5-formyl-2,6-dihydroxy-4-methyl)phenyl-3,7-dimethyl-3,7-nonadien-2-yl acetate], the IC50 with bovine complex II-III amounted to 4.5 µM; in series [2] (setting [6]), 1.9 µM; in series [2] (setting [7]), 0.92 µM; in series [3] (setting [8]), 4 µM; on human DHOD [4], 6.5 nM. For the same compound, on human DHOD [1], the inhibition at 0.1 µM turned out to be 103%. Besides, the “Selectivity = 21% glc(+)gln(+) IC50/1% glc(−)gln(−) IC50” value in [2] (DLD-1, 24 hours) is on record as above 53; in series [2] (DLD-1, 48 hours), above 109; in series [3], above 25. The GI50 with L0X-IMVI worked out at 1.5 µM; with KM-12, 5.7 µM. For the same compound, the inhibition at 0.2 µM at human DHOD [4] is 97%.

The compound `C/C(=C\Cc1c(O)c(Cl)c(C)c(C=O)c1O)CC/C=C(\C)COC1CCCO1` (stereo not drawn) [236-12-OTHF, 3-Chloro-5-(2E,6E)-3,7-dimethyl-8-(tetrahydrofuran-2-yloxy)-2,6-octadienyl-4,6-dihydroxy-2-methylbenzaldehyde] displayed a melting point of 35 to 36 °C. The inhibition at 0.1 µM on human DHOD [1] amounted to 97%. At human DHOD [4], the inhibition at 0.2 µM amounted to 86% and the IC50 was found to be 33 ± 3 nM.

Regarding `C/C(=C\COC(=O)C(C)C)CC/C(C)=C/Cc1c(O)c(Cl)c(C)c(C=O)c1O` [287-12-OCOiPr, (2E,6E)-8-(3-Chloro-5-formyl-2,6-dihydroxy-4-methylphenyl)-3,6-dimethyl-2,6-octa dienyl isobutylate], the melting point was in the range of 62 to 63 °C. In the series with MKN74, this compound gave a GI50 of 14 µM. The compound also displayed a GI50 with OVCAR-8 of 9.1 µM. Also, at human DHOD [1], the inhibition at 0.1 µM was 109%. The same compound returned a GI50 with KM-12 of 10 µM. Halving of growth in the series with HCC2998 (GI50) required 15 µM. Moreover, in the series with MKN28, the GI50 worked out at 10 µM. At human DHOD [4], the inhibition at 0.2 µM was determined as 101% and the IC50 was determined as 21.5 nM.

For `COC(CC(=O)C(C)(C)C)/C(C)=C/CC/C(C)=C/Cc1c(O)c(Cl)c(C)c(C=O)c1O` (stereo not drawn) [271-12, 3-Chloro-4,6-dihydroxy-2-methyl-5-(2E,6E)-(8-methoxy-3,7,11,11-tetramethyl-10-oxo-2,6-dodecadienyl)benzaldehyde], the inhibition at 0.1 µM on human DHOD [1] was 95%. At human DHOD [4], the inhibition at 0.2 µM worked out at 76% and the IC50 came out at 60 ± 21 nM.

With `Cc1c(-c2ccc(-c3ccccc3F)cc2)nc2ccc(F)cc2c1C(=O)[O-].[Na+]` [NSC368390, 6-Fluoro-2-(2′-fluoro-1,1′-biphenyl-4-yl)-3-methyl-4-quinolinecarboxylic Acid Sodium Salt], in series [5], the “inhibition of the growth of human carcinomas” value is reported as at least 90%. The “growth inhibition of DLD-2 colon cancer” value in the series on DLD-2 colon cancer is 98%. Besides, the “reduction of UMP levels” value with UMP levels is on record as 50%.

As to `C/C(C=O)=C\CC/C(C)=C/Cc1c(O)c(Cl)c(C)c(C=O)c1O` [274-9, 3-Chloro-5-[(2E,6E)-3,7-dimethyl-8-oxo-2,6-octadienyl]-4,6-dihydroxy-2-methylbenzaldehyde], the melting point fell in the range of 111.2 to 111.4 °C. The inhibition at 0.1 µM at human DHOD [1] came out at 98%. In addition, at human DHOD [4], the inhibition at 0.2 µM was found to be 90% and the IC50 was 31 ± 3 nM.
